Results as given in article PMC7753147, “High-throughput determination of protein affinities using unmodified peptide libraries in nanomolar scale” (iScience, 2020).

Experiments:
FL-geph = assay: µSPOT peptide microarray binding assay with full-length geph
gephE = assay: µSPOT peptide microarray binding assay with recombinant gephE
native geph = assay: µSPOT peptide microarray binding assay with native geph from mouse brain lysate
Experimental: Preparation of Mouse Tissue Lysates
Whole mouse brains were obtained from C57BL/6J mice at >4 weeks of age and 80 immediately flash frozen in liquid N2. Tissue of mRFP-gephyrin knock-in animals of 1 year of age (provided by Christian Specht, IBENS, Paris) was processed the same way. Before lysis, whole mouse brains were weighted and cut into four pieces along the coronal and sagittal axis. For preparation of one lysate, two diagonally opposite pieces were transferred into a 1.5 mL reaction tube (Sarsted). Lysis was carried out on ice in 400 µL RIPA lysis buffer (150 mM 85 NaCl, 50 mM Tris-HCl (pH=8), 1% Nonident P-40 substitute, 0.5% DOC, 0.1% SDS (all v/v)), to which Ethylenediaminetetraacetic acid (5 mM end concentration) and 1 mini tablet of ROCHE complete protease inhibitor per 10 mL was added immediately before use, by hand crushing the brain material with a hand pestle in a 1.5 mL reaction tube. Lysis was completed by 1 min sonification on ice with a Sartorius Labsonic M Sonificator at 20% amplitude with 90 care to avoid heating the suspensions. Finally, Lysates were centrifuged for 15 min at 17,200×g and 4 °C. The SN was subsequently collected, transferred to a new 1.5 mL reaction tube, flash frozen in liquid N2 and stored at -80 °C until use.
95 µSPOT slides were blocked by incubation with 2.5 mL 2% (w/v) IGG free bovine serum

[1] = µSPOT full positional scan of GlyRβ 15-mer DLRSNDFSIVGSLPR, intensity normalised to wild-type sequence (= 1)
[2] = µSPOT full positional scan of GlyRβ 15-mer DLRSNDFSIVGSLPR, native geph, intensity normalised to wild-type sequence (= 1)
[3] = µSPOT peptide microarray, GlyRβ full positional scan, intensity normalised to wild-type sequence DLRSNDFSIVGSLPR (=1)
[4] = µSPOT peptide microarray, GlyRβ full positional scan, recombinant gephE, intensity normalised to wild-type sequence DLRSNDFSIVGSLPR (=1)
[5] = µSPOT peptide microarray, GlyRβ full positional scan, native geph from mouse brain lysate, intensity normalised to wild-type sequence DLRSNDFSIVGSLPR (=1)

## DLRSNDFSIVGVLPR [GlyRβ_Full_Positional_Scan_226]
FL-geph; [1]
  Fl-geph Binding Intensity [norm.]: 1.01 norm.
gephE; [1]
  gephE Binding Intensity [norm.]: 0.69 norm.
Native geph; [2]
  Native geph Binding Intensity [norm.]: 0.74 norm.

## DLRSNDFSIVGSLRR [GlyRβ_Full_Positional_Scan_272]
FL-geph; [1]
  Fl-geph Binding Intensity [norm.]: 0.93 norm.
gephE; [1]
  gephE Binding Intensity [norm.]: 0.59 norm.
Native geph; [2]
  Native geph Binding Intensity [norm.]: 0.25 norm.

## DLRSNDFSINGSLPR [GlyRβ_Full_Positional_Scan_199, GlyR β 414-428 variant V423N]
FL-geph; [3]
  Fl-geph Binding Intensity [norm.]: 0.79 norm.
gephE; [4]
  gephE Binding Intensity [norm.]: 0.4 norm.
Native geph; [5]
  Native geph Binding Intensity [norm.]: 0.17 norm.

## DLRSNDFSIVGSLLR [GlyRβ_Full_Positional_Scan_264]
FL-geph; [1]
  Fl-geph Binding Intensity [norm.]: 0.74 norm.
gephE; [1]
  gephE Binding Intensity [norm.]: 0.66 norm.
Native geph; [2]
  Native geph Binding Intensity [norm.]: 0.32 norm.

## DLRSNDFDIVGSLPR [GlyRβ_Full_Positional_Scan_150, GlyR β 414-428 variant S421D]
FL-geph; [3]
  Fl-geph Binding Intensity [norm.]: 0.9 norm.
gephE; [4]
  gephE Binding Intensity [norm.]: 0.53 norm.
Native geph; [5]
  Native geph Binding Intensity [norm.]: 0.29 norm.

## DLFSNDFSIVGSLPR [GlyRβ_Full_Positional_Scan_047]
FL-geph; [3]
  Fl-geph Binding Intensity [norm.]: 1.29 norm.
gephE; [4]
  gephE Binding Intensity [norm.]: 0.89 norm.
Native geph; [5]
  Native geph Binding Intensity [norm.]: 1.18 norm.

## DLRSNDFSIVGSLPF [GlyRβ_Full_Positional_Scan_287]
FL-geph; [1]
  Fl-geph Binding Intensity [norm.]: 0.64 norm.
gephE; [1]
  gephE Binding Intensity [norm.]: 1.01 norm.
Native geph; [2]
  Native geph Binding Intensity [norm.]: 0.79 norm.

## DLRANDFSIVGSLPR [GlyRβ_Full_Positional_Scan_061]
FL-geph; [3]
  Fl-geph Binding Intensity [norm.]: 0.86 norm.
gephE; [4]
  gephE Binding Intensity [norm.]: 0.98 norm.
Native geph; [5]
  Native geph Binding Intensity [norm.]: 1.12 norm.

## DLRSNDISIVGSLPR [GlyRβ_Full_Positional_Scan_123, GlyR β 414-428 variant F420I]
FL-geph; [3]
  Fl-geph Binding Intensity [norm.]: 0.66 norm.
gephE; [4]
  gephE Binding Intensity [norm.]: 0.57 norm.
Native geph; [5]
  Native geph Binding Intensity [norm.]: 0.46 norm.

## DLRSNTFSIVGSLPR [GlyRβ_Full_Positional_Scan_116]
FL-geph; [3]
  Fl-geph Binding Intensity [norm.]: 0.97 norm.
gephE; [4]
  gephE Binding Intensity [norm.]: 0.85 norm.
Native geph; [5]
  Native geph Binding Intensity [norm.]: 0.75 norm.

## DLRTNDFSIVGSLPR [GlyRβ_Full_Positional_Scan_076]
FL-geph; [3]
  Fl-geph Binding Intensity [norm.]: 1.09 norm.
gephE; [4]
  gephE Binding Intensity [norm.]: 0.93 norm.
Native geph; [5]
  Native geph Binding Intensity [norm.]: 1.12 norm.

## DLRSNDFSIVESLPR [GlyRβ_Full_Positional_Scan_211, GlyR β 414-428 variant G424E]
FL-geph; [3]
  Fl-geph Binding Intensity [norm.]: 0.18 norm.
gephE; [4]
  gephE Binding Intensity [norm.]: 0.23 norm.
Native geph; [5]
  Native geph Binding Intensity [norm.]: 0.14 norm.

## DLRSNDFSIVGSLPG [GlyRβ_Full_Positional_Scan_282]
FL-geph; [1]
  Fl-geph Binding Intensity [norm.]: 0.92 norm.
gephE; [1]
  gephE Binding Intensity [norm.]: 0.88 norm.
Native geph; [2]
  Native geph Binding Intensity [norm.]: 0.84 norm.

## DLRSNDFYIVGSLPR [GlyRβ_Full_Positional_Scan_149, GlyR β 414-428 variant S421Y]
FL-geph; [3]
  Fl-geph Binding Intensity [norm.]: 0.85 norm.
gephE; [4]
  gephE Binding Intensity [norm.]: 0.7 norm.
Native geph; [5]
  Native geph Binding Intensity [norm.]: 0.27 norm.

## DLRSNDFSIVGELPR [GlyRβ_Full_Positional_Scan_231]
FL-geph; [1]
  Fl-geph Binding Intensity [norm.]: 0.84 norm.
gephE; [1]
  gephE Binding Intensity [norm.]: 0.64 norm.
Native geph; [2]
  Native geph Binding Intensity [norm.]: 0.49 norm.

## DKRSNDFSIVGSLPR [GlyRβ_Full_Positional_Scan_034]
FL-geph; [3]
  Fl-geph Binding Intensity [norm.]: 0.94 norm.
gephE; [4]
  gephE Binding Intensity [norm.]: 0.88 norm.
Native geph; [5]
  Native geph Binding Intensity [norm.]: 0.53 norm.

## DLRSNDFSEVGSLPR [GlyRβ_Full_Positional_Scan_171, GlyR β 414-428 variant I422E]
FL-geph; [3]
  Fl-geph Binding Intensity [norm.]: 0.25 norm.
gephE; [4]
  gephE Binding Intensity [norm.]: 0.24 norm.
Native geph; [5]
  Native geph Binding Intensity [norm.]: 0.13 norm.

## DLRSNDFSIVGSLPA [GlyRβ_Full_Positional_Scan_281]
FL-geph; [1]
  Fl-geph Binding Intensity [norm.]: 0.9 norm.
gephE; [1]
  gephE Binding Intensity [norm.]: 0.87 norm.
Native geph; [2]
  Native geph Binding Intensity [norm.]: 0.81 norm.

## DLRSNDESIVGSLPR [GlyRβ_Full_Positional_Scan_131, GlyR β 414-428 variant F420E]
FL-geph; [3]
  Fl-geph Binding Intensity [norm.]: 0.32 norm.
gephE; [4]
  gephE Binding Intensity [norm.]: 0.42 norm.
Native geph; [5]
  Native geph Binding Intensity [norm.]: 0.2 norm.

## DLRSNDFSIVGSLWR [GlyRβ_Full_Positional_Scan_268]
FL-geph; [1]
  Fl-geph Binding Intensity [norm.]: 0.72 norm.
gephE; [1]
  gephE Binding Intensity [norm.]: 0.61 norm.
Native geph; [2]
  Native geph Binding Intensity [norm.]: 0.32 norm.

## DLRSNDFIIVGSLPR [GlyRβ_Full_Positional_Scan_143, GlyR β 414-428 variant S421I]
FL-geph; [3]
  Fl-geph Binding Intensity [norm.]: 0.41 norm.
gephE; [4]
  gephE Binding Intensity [norm.]: 0.4 norm.
Native geph; [5]
  Native geph Binding Intensity [norm.]: 0.18 norm.

## DLRSHDFSIVGSLPR [GlyRβ_Full_Positional_Scan_093]
FL-geph; [3]
  Fl-geph Binding Intensity [norm.]: 0.75 norm.
gephE; [4]
  gephE Binding Intensity [norm.]: 0.9 norm.
Native geph; [5]
  Native geph Binding Intensity [norm.]: 0.72 norm.

## DLGSNDFSIVGSLPR [GlyRβ_Full_Positional_Scan_042]
FL-geph; [3]
  Fl-geph Binding Intensity [norm.]: 1.02 norm.
gephE; [4]
  gephE Binding Intensity [norm.]: 0.93 norm.
Native geph; [5]
  Native geph Binding Intensity [norm.]: 1.26 norm.

## DLRSNDFSIDGSLPR [GlyRβ_Full_Positional_Scan_190, GlyR β 414-428 variant V423D]
FL-geph; [3]
  Fl-geph Binding Intensity [norm.]: 0.35 norm.
gephE; [4]
  gephE Binding Intensity [norm.]: 0.46 norm.
Native geph; [5]
  Native geph Binding Intensity [norm.]: 0.28 norm.

## DLRSNDFSIVGSLPI [GlyRβ_Full_Positional_Scan_283]
FL-geph; [1]
  Fl-geph Binding Intensity [norm.]: 1.05 norm.
gephE; [1]
  gephE Binding Intensity [norm.]: 0.98 norm.
Native geph; [2]
  Native geph Binding Intensity [norm.]: 1.01 norm.

## DLRSNDFSIVGSRPR [GlyRβ_Full_Positional_Scan_252]
FL-geph; [1]
  Fl-geph Binding Intensity [norm.]: 1.07 norm.
gephE; [1]
  gephE Binding Intensity [norm.]: 0.84 norm.
Native geph; [2]
  Native geph Binding Intensity [norm.]: 0.38 norm.

## DLRSNDFSIVGSLPS [GlyRβ_Full_Positional_Scan_295]
FL-geph; [1]
  Fl-geph Binding Intensity [norm.]: 1.3 norm.
gephE; [1]
  gephE Binding Intensity [norm.]: 0.82 norm.
Native geph; [2]
  Native geph Binding Intensity [norm.]: 1.3 norm.

## DLRSNDFSIVGSGPR [GlyRβ_Full_Positional_Scan_242]
FL-geph; [1]
  Fl-geph Binding Intensity [norm.]: 0.91 norm.
gephE; [1]
  gephE Binding Intensity [norm.]: 0.69 norm.
Native geph; [2]
  Native geph Binding Intensity [norm.]: 0.66 norm.

## DLRSFDFSIVGSLPR [GlyRβ_Full_Positional_Scan_087]
FL-geph; [3]
  Fl-geph Binding Intensity [norm.]: 0.75 norm.
gephE; [4]
  gephE Binding Intensity [norm.]: 0.9 norm.
Native geph; [5]
  Native geph Binding Intensity [norm.]: 0.55 norm.

## DLRSNDFSIVHSLPR [GlyRβ_Full_Positional_Scan_213, GlyR β 414-428 variant G424H]
FL-geph; [1]
  Fl-geph Binding Intensity [norm.]: 0.5 norm.
gephE; [1]
  gephE Binding Intensity [norm.]: 0.47 norm.
Native geph; [2]
  Native geph Binding Intensity [norm.]: 0.18 norm.

## DLRSNDFSPVGSLPR [GlyRβ_Full_Positional_Scan_165, GlyR β 414-428 variant I422P]
FL-geph; [3]
  Fl-geph Binding Intensity [norm.]: 0.97 norm.
gephE; [4]
  gephE Binding Intensity [norm.]: 0.64 norm.
Native geph; [5]
  Native geph Binding Intensity [norm.]: 0.48 norm.

## DARSNDFSIVGSLPR [GlyRβ_Full_Positional_Scan_021]
FL-geph; [3]
  Fl-geph Binding Intensity [norm.]: 1.04 norm.
gephE; [4]
  gephE Binding Intensity [norm.]: 1.01 norm.
Native geph; [5]
  Native geph Binding Intensity [norm.]: 0.95 norm.

## DLRSNDFSIVGALPR [GlyRβ_Full_Positional_Scan_221]
FL-geph; [1]
  Fl-geph Binding Intensity [norm.]: 1.04 norm.
gephE; [1]
  gephE Binding Intensity [norm.]: 0.77 norm.
Native geph; [2]
  Native geph Binding Intensity [norm.]: 0.99 norm.
